Measured values published in publication PMC12373499 (Nature Metabolism, 2025).
Where a SMILES comes first, the peptide text is derived from it. [ ]: non-standard residue; d: D form. The star is where a group is joined. X1 = CN1C(=CC=CC=CC2=[N+](CCCCCC(=O)NCCN3C(=O)CC(*)C3=O)c3ccccc3C2(C)C)C(C)(C)c2ccccc21; Aib = CC(C)(N)C(=O)O

What was measured:
[1] = system: MIN6-CB4 β cells; assay: MIN6-CB4 cell fluorescent probe labelling, colocalization; format: cell-based
Procedure: MIN6-CB4 cells were generated and phenotyped, as previously described. Cells were grown to 70% confluency in MIN6 media (DMEM High Glucose supplemented with 15% FBS, 71 μM 2-mercaptoethanol, 2 mM glutamine, 100 units ml^−1 penicillin, 100 μg ml^−1 streptomycin). Cells were then seeded in 100 μl MIN6 media per well, on a glass-bottomed 96-well imaging plate previously coated with poly-L-lysine 0.01%.
(§1) Probe labelling was analysed using corrected total cell fluorescence, which is integrated density − (area of selected cell × mean fluorescence of background readings)[52],[53]. Colocalization was determined using Manders’ coefficient, which calculates the proportion of pixels in one channel that also show intensity from both channels. Full width at half maximum was used to analyse labelling patterns at the membrane versus cytoplasm. All analyses were performed in ImageJ (NIH), with brightness and contrast linearly adjusted across the entire image for presentation purposes and applied equally between all states under examination.

[2] = system: SC-islets; assay: Labelling of iPS cell-derived islet-like structures (SC-islets); format: cell-based, human; conditions: n = 12 SC-islets from two differentiations
Procedure: For immunostaining, labelled islets were washed three times with PBS, then incubated with 2–4% formalin for 15 min at room temperature (16–25 °C). Islets were again washed three times with PBS, then incubated in permeabilizing blocking buffer for 1 h at room temperature before incubation with primary antibody overnight at 4 °C. The following day, islets were incubated with secondary antibody for 2 h at room temperature before mounting onto microscope slides with […] HardSet with DAPI or Everbrite Hardset. Primary and secondary antibodies are listed in Supplementary Table 5.
Human iPS cells (ALSTEM, iPS11) were maintained on iPS cell-qualified Matrigel (Corning, 354277) in mTeSR+ media (StemCell Technologies, 05826). ALSTEM iPS11 cells were authenticated at source by testing for expression of OCT4 and TRA-1-60, as well as alkaline phosphatase activity. Differentiation to islet-like structures (SC-islets) was carried out in a suspension-based, magnetic CELLSPIN bioreactor system ([…]). Differentiation media was changed daily by letting spheres settle by gravity for 3–10 min. Most of the supernatant was removed by aspiration; fresh media was added and bioreactors were placed back on the stirrer system. SC-islet differentiation was based on published protocols[35],[49]
as §1

[3] = daLUXendin660 (tirz Cy5 500nM) vs LUXendin551 (100nM), image 2022.05.06 1-1
[4] = daLUXendin660 (tirz Cy5 500nM) vs LUXendin551 (100nM), image 2022.05.06 1-2
[5] = daLUXendin660 (tirz Cy5 500nM) vs LUXendin551 (100nM), image 2022.05.06 1-3
[6] = daLUXendin660 (tirz Cy5 500nM) vs LUXendin551 (100nM), image 2022.05.06 1-4
[7] = daLUXendin660 (tirz Cy5 500nM) vs LUXendin551 (100nM), image 2022.05.06 2-1
[8] = daLUXendin660 (tirz Cy5 500nM) vs LUXendin551 (100nM), image 2022.05.06 2-2
[9] = daLUXendin660 (tirz Cy5 500nM) vs LUXendin551 (100nM), image 2022.05.06 2-3
[10] = daLUXendin660 (tirz Cy5 500nM) vs LUXendin551 (100nM), image 2022.05.06 2-4
[11] = daLUXendin660 (tirz Cy5 500nM) vs LUXendin551 (100nM), image 2022.05.12 1-1
[12] = daLUXendin660 (tirz Cy5 500nM) vs LUXendin551 (100nM), image 2022.05.12 1-2
[13] = daLUXendin660 (tirz Cy5 500nM) vs LUXendin551 (100nM), image 2022.05.12 1-3
[14] = daLUXendin660 (tirz Cy5 500nM) vs LUXendin551 (100nM), image 2022.05.12 1-4
[15] = daLUXendin660 (tirz Cy5 500nM) vs LUXendin551 (100nM), image 2022.05.12 2-1
[16] = daLUXendin660 (tirz Cy5 500nM) vs LUXendin551 (100nM), image 2022.05.12 2-2
[17] = daLUXendin660 (tirz Cy5 500nM) vs LUXendin551 (100nM), image 2022.05.12 2-3
[18] = daLUXendin660 (tirz Cy5 500nM) vs LUXendin551 (100nM), image 2022.05.12 2-4
[19] = daLUXendin660 (tirz Cy5 500nM) vs sGIP549 (JB2228 100nM), image 2022.05.06 1-1
[20] = daLUXendin660 (tirz Cy5 500nM) vs sGIP549 (JB2228 100nM), image 2022.05.06 1-2
[21] = daLUXendin660 (tirz Cy5 500nM) vs sGIP549 (JB2228 100nM), image 2022.05.06 1-3
[22] = daLUXendin660 (tirz Cy5 500nM) vs sGIP549 (JB2228 100nM), image 2022.05.06 1-4
[23] = daLUXendin660 (tirz Cy5 500nM) vs sGIP549 (JB2228 100nM), image 2022.05.06 2-1
[24] = daLUXendin660 (tirz Cy5 500nM) vs sGIP549 (JB2228 100nM), image 2022.05.06 2-2
[25] = daLUXendin660 (tirz Cy5 500nM) vs sGIP549 (JB2228 100nM), image 2022.05.06 2-3
[26] = daLUXendin660 (tirz Cy5 500nM) vs sGIP549 (JB2228 100nM), image 2022.05.06 2-4
[27] = daLUXendin660 (tirz cy5 500nM) vs sGIP549 (JB2228 100nM), image 2022.05.12 1-1
[28] = daLUXendin660 (tirz cy5 500nM) vs sGIP549 (JB2228 100nM), image 2022.05.12 1-2
[29] = daLUXendin660 (tirz cy5 500nM) vs sGIP549 (JB2228 100nM), image 2022.05.12 1-3
[30] = daLUXendin660 (tirz cy5 500nM) vs sGIP549 (JB2228 100nM), image 2022.05.12 1-4
[31] = daLUXendin660 (tirz cy5 500nM) vs sGIP549 (JB2228 100nM), image 2022.05.12 2-1
[32] = daLUXendin660 (tirz cy5 500nM) vs sGIP549 (JB2228 100nM), image 2022.05.12 2-2
[33] = daLUXendin660 (tirz cy5 500nM) vs sGIP549 (JB2228 100nM), image 2022.05.12 2-3
[34] = daLUXendin660 (tirz cy5 500nM) vs sGIP549 (JB2228 100nM), image 2022.05.12 2-4

## CC[C@H](C)[C@H](NC(=O)[C@H](CC(C)C)NC(=O)[C@H](Cc1c[nH]c2ccccc12)NC(=O)[C@H](CCC(N)=O)NC(=O)[C@@H](NC(=O)[C@H](Cc1ccccc1)NC(=O)[C@H](C)NC(=O)[C@H](CCCCN)NC(=O)[C@H](CCC(N)=O)NC(=O)[C@H](C)NC(=O)[C@@H](NC(=O)[C@H](CCCCN)NC(=O)[C@H](CC(=O)O)NC(=O)[C@H](CC(C)C)NC(=O)C(C)(C)NC(=O)[C@@H](NC(=O)[C@H](CO)NC(=O)[C@H](Cc1ccc(O)cc1)NC(=O)[C@H](CC(=O)O)NC(=O)[C@H](CO)NC(=O)[C@@H](NC(=O)[C@H](Cc1ccccc1)NC(=O)[C@@H](NC(=O)CNC(=O)[C@H](CCC(=O)O)NC(=O)C(C)(C)NC(=O)[C@@H](N)Cc1ccc(O)cc1)[C@@H](C)O)[C@@H](C)O)[C@@H](C)CC)[C@@H](C)CC)C(C)C)C(=O)N[C@@H](C)C(=O)NCC(=O)NCC(=O)N1CCC[C@H]1C(=O)N[C@@H](CO)C(=O)N[C@@H](CO)C(=O)NCC(=O)N[C@@H](C)C(=O)N1CCC[C@H]1C(=O)N1CCC[C@H]1C(=O)N1CCC[C@H]1C(=O)N[C@@H](CSC1CC(=O)N(CCNC(=O)CCCCC[N+]2=C(C=CC=CC=C3N(C)c4ccccc4C3(C)C)C(C)(C)c3ccccc32)C1=O)C(N)=O (stereo partly shown) [daLUXendin660] (H-Y[Aib]EGTFTSDYSI[Aib]LDKIAQKAFVQWLIAGGPSSGAPPPC(X1)-NH2)
[1]; [3]
  Manders' R: 0.82
  Pearson's: 0.663
[1]; [4]
  Manders' R: 0.763
  Pearson's: 0.555
[1]; [5]
  Manders' R: 0.866
  Pearson's: 0.756
[1]; [6]
  Manders' R: 0.82
  Pearson's: 0.61
[1]; [7]
  Manders' R: 0.849
  Pearson's: 0.778
[1]; [8]
  Manders' R: 0.803
  Pearson's: 0.595
[1]; [9]
  Manders' R: 0.811
  Pearson's: 0.656
[1]; [10]
  Manders' R: 0.83
  Pearson's: 0.66
[1]; [11]
  Manders' R: 0.861
  Pearson's: 0.826
[1]; [12]
  Manders' R: 0.847
  Pearson's: 0.812
[1]; [13]
  Manders' R: 0.799
  Pearson's: 0.723
[1]; [14]
  Manders' R: 0.766
  Pearson's: 0.713
[1]; [15]
  Manders' R: 0.8
  Pearson's: 0.745
[1]; [16]
  Manders' R: 0.809
  Pearson's: 0.769
[1]; [17]
  Manders' R: 0.825
  Pearson's: 0.795
[1]; [18]
  Manders' R: 0.894
  Pearson's: 0.914
[1]; [19]
  Manders' R: 0.9
  Pearson's: 0.838
[1]; [20]
  Manders' R: 0.901
  Pearson's: 0.809
[1]; [21]
  Manders' R: 0.886
  Pearson's: 0.756
[1]; [22]
  Manders' R: 0.894
  Pearson's: 0.818
[1]; [23]
  Manders' R: 0.899
  Pearson's: 0.824
[1]; [24]
  Manders' R: 0.894
  Pearson's: 0.796
[1]; [25]
  Manders' R: 0.901
  Pearson's: 0.822
[1]; [26]
  Manders' R: 0.878
  Pearson's: 0.769
[1]; [27]
  Manders' R: 0.862
  Pearson's: 0.834
[1]; [28]
  Manders' R: 0.735
  Pearson's: 0.645
[1]; [29]
  Manders' R: 0.775
  Pearson's: 0.722
[1]; [30]
  Manders' R: 0.833
  Pearson's: 0.821
[1]; [31]
  Manders' R: 0.823
  Pearson's: 0.764
[1]; [32]
  Manders' R: 0.748
  Pearson's: 0.736
[1]; [33]
  Manders' R: 0.968
  Pearson's: 0.975
[1]; [34]
  Manders' R: 0.784
  Pearson's: 0.683
[2]; GCG+ cells
  corrected total cell fluorescence, α cells: 2.30 × 10^5 ± 1.59 × 10^5 AU
[2]; INS+ cells
  corrected total cell fluorescence, β cells: 3.60 × 10^5 ± 2.58 × 10^5 AU
[2]; SST+ cells
  corrected total cell fluorescence, δ cells: 2.16 × 10^5 ± 1.46 × 10^5 AU
